From ChEMBL document CHEMBL1201862, “PubChem BioAssay data set” (2004)
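Test compounds were applied to cells in 96-well plates for 48 hours at 5 doses. The concentration for 50% growth inhibition is given as GI50.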 The source made the active and inactive calls. Cut-off read from the data, not from the text of the source: active = GI50 up to about 1.1 µM and inactive = higher.

Tests used:
Assay in all cases: inhibition of tumour cell growth, NCI panel, 48 h
[1] = test system: A498
[2] = test system: CCRF-CEM
[3] = test system: EKVX
[4] = test system: HCC 2998
[5] = test system: HCT-116
[6] = test system: K562
[7] = test system: LOX IMVI
[8] = test system: MCF7
[9] = test system: NCI-H226
[10] = test system: NCI-H460
[11] = test system: NCI-H522
[12] = test system: NCI/ADR-RES
[13] = test system: OVCAR-8
[14] = test system: RPMI-8226
[15] = test system: SK-MEL-28
[16] = test system: SNB-19
[17] = test system: SNB-75
[18] = test system: SW-620
[19] = test system: U-251
[20] = test system: UACC-62

Measured: GI50

Cn1c(=O)[nH]c2nncnc2c1=O
inactive: [1] 87.1 µM | [2] 173 µM | [3] 40.5 µM | [4] 54 µM | [5] 29.2 µM | [6] 211 µM | [7] 361 µM | [8] 212 µM | [9] 5.83 µM | [10] 29.3 µM | [11] 157 µM | [12] 217 µM | [13] 19.8 µM | [14] 77.4 µM | [15] 474 µM | [16] 51.2 µM | [17] 21 µM | [18] 75 µM | [19] 28.7 µM | [20] 44.4 µM

Nc1cccc2c1C1=NNC(=O)CC1C2 (stereo not given)
inactive: [1] > 100 µM | [2] > 100 µM | [3] > 76.6 µM | [4] > 100 µM | [5] > 100 µM | [6] > 100 µM | [7] > 100 µM | [8] > 100 µM | [9] > 100 µM | [10] > 100 µM | [11] > 100 µM | [12] > 100 µM | [13] > 100 µM | [14] > 100 µM | [15] > 100 µM | [16] > 100 µM | [17] > 100 µM | [18] > 100 µM | [19] > 100 µM | [20] > 100 µM

CSc1nc(NC2OC(CO)C(O)C(O)C2O)c(N)c(=O)[nH]1 (stereo not given)
inactive: [1] > 100 µM | [2] > 100 µM | [3] > 100 µM | [4] > 100 µM | [5] > 100 µM | [6] > 100 µM | [7] > 100 µM | [8] > 100 µM | [9] > 100 µM | [10] > 100 µM | [11] > 100 µM | [12] > 100 µM | [13] > 100 µM | [14] > 100 µM | [15] > 100 µM | [16] > 100 µM | [17] > 100 µM | [18] > 100 µM | [19] > 100 µM | [20] > 100 µM

CNC(=O)SCC(N)C(=O)O (stereo not given)
inactive: [1] > 100 µM | [2] 25.8 µM | [3] > 100 µM | [4] > 100 µM | [5] > 79.4 µM | [6] 30.6 µM | [7] 42.2 µM | [8] > 100 µM | [9] > 84.7 µM | [10] > 68.7 µM | [11] > 67.9 µM | [12] > 100 µM | [13] > 100 µM | [14] 25.4 µM | [15] > 100 µM | [16] > 100 µM | [17] > 100 µM | [18] > 85.9 µM | [19] > 89.9 µM | [20] > 94.8 µM

COc1ccc2c(c1O)-c1cc(O)cc3c1[C@@H](C2)N(C)CC3
inactive: [1] 49.9 µM | [2] 81.1 µM | [3] 98.4 µM | [4] 73.6 µM | [5] 27 µM | [6] 67.6 µM | [7] 56.6 µM | [8] 61.8 µM | [9] 47 µM | [10] 74 µM | [11] 121 µM | [12] 75.9 µM | [13] 8.79 µM | [14] 75.3 µM | [15] 80 µM | [16] 101 µM | [17] 60.7 µM | [18] 61.8 µM | [19] 10.7 µM | [20] 70 µM
